Reference: publication PMC7822592, “The half-life of the bone-derived hormone osteocalcin is regulated through O-glycosylation in mice, but not in humans” (eLife, 2020)

System: primary osteoblasts
Test: Percentage of carboxylated OCN (Gla-OCN) over total OCN by ELISA in osteoblast secretion medium
Type: cell-based, mouse
Protocol: Primary osteoblasts were transfected using jetPRIME Reagent (Polypus transfection). After an overnight incubation, media were changed to secretion media (FBS-free αMEM plus 2 mM L-glutamine, PS). After 24 hr of secretion, media were collected, and cells were lysed in protein lysis buffer (20 mM Tris-HC pH 7.4, 150 mM NaCl, 1 mM EDTA, 1 mM EGTA, 1% Triton, 1 mM PMSF, and 1 × protease inhibitor cocktail) and analyzed by western blotting. In some experiments, osteoblasts were treated with the γ-carboxylation inhibitor warfarin (50 μM; Santa Cruz Biotechnology), the N-acetylgalactosaminyltransferase inhibitor GalNAc-bn (2 mM, Sigma) or the proprotein convertase inhibitor Dec-RVKR-CMK (50 μM, Tocris), combined with 22 μM vitamin K1 (Sigma).

Structure (SMILES) | Gla OCN (% of total) (osteoblasts transfected with OCN-V5, inhibitor 2 mM, secretion medium, Figure 2C, replicate 1) | Gla OCN (% of total) (osteoblasts transfected with OCN-V5, inhibitor 2 mM, secretion medium, Figure 2C, replicate 2) | Gla OCN (% of total) (osteoblasts transfected with OCN-V5, inhibitor 50 μM, Figure 2D/2E, replicate 1) | Gla OCN (% of total) (osteoblasts transfected with OCN-V5, inhibitor 50 μM, Figure 2D/2E, replicate 2) | Gla OCN (% of total) (osteoblasts transfected with OCN-V5, inhibitor 50 μM, Figure 2D/2E, replicate 3) | Gla OCN (% of total) (osteoblasts transfected with OCN-V5, inhibitor 50 μM, secretion medium, Figure 2C, replicate 1) | Gla OCN (% of total) (osteoblasts transfected with OCN-V5, inhibitor 50 μM, secretion medium, Figure 2C, replicate 2) | Gla OCN (% of total) (osteoblasts transfected with OCNS8A-V5, inhibitor 50 μM, Figure 2D/2E, replicate 1) | Gla OCN (% of total) (osteoblasts transfected with OCNS8A-V5, inhibitor 50 μM, Figure 2D/2E, replicate 2) | Gla OCN (% of total) (osteoblasts transfected with OCNS8A-V5, inhibitor 50 μM, Figure 2D/2E, replicate 3)
CC(=O)N[C@H]1[C@@H](OCc2ccccc2)O[C@H](CO)[C@H](O)[C@@H]1O [GalNAc-bn, benzyl-N-acetyl-α-galactosaminide] | 43.4 % of total | 43.4 % of total |  |  |  |  |  |  |  | 
CC(=O)CC(c1ccccc1)c1c(O)c2ccccc2oc1=O (stereo not shown) [Warfarin] |  |  | 29.8 % of total | 27.1 % of total | 26.1 % of total | 14.3 % of total | 19.5 % of total | 26.8 % of total | 20.4 % of total | 29.1 % of total
